Test results published in publication PMC12115180 (Pharmaceuticals, 2025).
Like-named read-outs stand apart in the source and are kept apart here.

Experiments:
[1] = Rabbit, average of n = 6; 0.5% 50 μL, 250 μg; cited from earlier work
[2] = Non-GLP tox studies in rabbits, topical application; assay type: in vivo; conditions: twice daily topical application of 1% rifampicin, 3-month dosing (Unpublished data)
[3] = Human peak plasma exposure (package insert); assay type: in vivo; conditions: 600 mg intravenous dose, calculated from package insert values
[4] = system: mouse laser-induced CNV model; experiment: Mouse laser-induced CNV model
[5] = system: oxygen-induced retinopathy rat models; experiment: Oxygen-induced retinopathy rat model, capillary count in histology sections; assay type: in vivo, Sprague–Dawley rat; conditions: SC injection 20 mg/kg once a day P15–P19, histology P20
Excerpt: Oxygen-induced retinopathy rat models were produced according to the protocols of Yanni et al. (2010). Sprague–Dawley rat babies (and their nursing mothers) were exposed to a cycling oxygen environment (80% and 21%, about one day for each) for 15 days after starting from the day of birth (Day 0). On Day 15 (P15), the animals were moved to room air. […] On P20, all of the animals were euthanized by CO2 gas, and the retina was visualized as histology sections.

[6] = Retinal delivery of rifampicin in rat after topical 0.25% eye drops; assay type: in vivo, Sprague-Dawley rats
Experimental: A single drop contained 5 μL of the above-described formulation, and the application of each drug drop was carried out at intervals of 30 min. After the eye drop application, euthanasia was performed using CO2 gas, and the retina was excised from each rat under a dissection microscope. In addition, “non-treated” negative controls were used, and the retina was excised from two rats without performing any treatments on the rats. The retina was placed in a 1.5 mL microcentrifuge tube (1 retina/tube) and was fully washed with DPBS. After completion of the washing procedures, the retinal tissues in the microcentrifuge tube were frozen in dry ice and then preserved for quantification by LC/MS analysis.

HUVEC = conditions: in vitro; cited from earlier work
[7] = design: method as in PMID 17995946; conditions: typical six-month course for tuberculosis; cited from earlier work
[8] = system: patients with Central Serous Chorioretinopathy (CSC); conditions: cited from earlier work
[9] = design: method as in earlier work; conditions: cited from earlier work
[10] = design: method as in WO 2023/234423 A1; conditions: mouse, SC; ref WO 2023/234423 A1; cited from earlier work
[11] = Rat retina pharmacokinetics, single topical 0.25% rifampicin eye drop; assay type: in vivo, Sprague–Dawley rats; conditions: male, Sprague-Dawley, topical or ocular, 15 μL of 0.25% rifampicin eye drop
Experimental: At time points of 1 h, 3 h, and 7 h after the application of the eye drops, euthanasia was performed using CO2 gas, and the retinal tissues were excised from the rats under a dissection microscope. In addition, “non-treated” negative controls were used, and the retina was excised from one rat without performing any treatments on the rat. The retina was placed in a 1.5-mL microcentrifuge tube (1 retina/tube) and was fully washed with DPBS. After completion of the washing procedures, the retinal tissues in the microcentrifuge tube were frozen in dry ice and then preserved for quantification by LC/MS analysis.

[12] = Mouse sub-retina/sclera complex pharmacokinetics after SC injection; assay type: in vivo, C57BL/6J mice; conditions: single SC injection 0.7 mg/kg
Experimental: This effective dosage and administration route was evaluated in dose escalation studies by using the mouse laser-induced CNV model. The AUC reflects the exposure to the drug after administration of a dose of the drug and is expressed in hour · ng/mg tissue. The AUC is dependent on the dose administered as well as the rate of elimination of the drug from the tissue. The AUC is directly proportional to the dose when the drug follows linear kinetics, and AUC is inversely proportional to the clearance of the drug. In 1 h, 3 h, 6 h, and 18 h after the SC injection, eyeballs were extracted. Tissue from the retina, the sclera, and the sub-retina complex were isolated and extracted. These tissues were immediately frozen in liquid nitrogen. The tissue was subjected to LC/MS analysis for quantitation. The detection limit was 0.25 ng/g tissue.

Structure (SMILES)	Drug Amount Detected in Retina [1]	Toxicity on repeated topical application [2]	Estimated serum concentration corresponding to peak plasma exposure [3] [µM]	Inhibition of neovascularization in CNV model ([4]; SC injection 0.7 mg/kg once daily, 7 days after laser)	Neovascularization inhibition level compared with intravitreal aflibercept ([4]; SC injections at doses exceeding 0.7 mg/kg)	Minimum effective dose for inhibiting neovascularization in subretinal tissues ([4]; SC, dose escalation studies) [mg/kg]	Effective dosage in CNV model, times less than that of bacterial inhibition ([4]; vs 20 mg/kg effective systemic dosage for bacterial infection)	Number of new capillaries on the retinal surface vs vehicle control [5]	Drug Amount Detected in Retina ([6]; topical 0.25% 3 drops (15 μL, 37.5 μg))	Drug Amount Detected in Retina ([6]; topical 0.25% 10 drops (50 μL, 125 μg))	Concentration required for statistically significant inhibition of HUVEC tube formation and proliferation (HUVEC)	Patients with hepatotoxicity [7]	Effect on CSC ([8]; 600 mg daily oral dose)	Effect on visual acuity and macular thickness in CSC ([8]; daily oral dosage of 300 mg)	Peak plasma exposure ([9]; 600 mg intravenous dose) [µg/mL]	Peak plasma exposure ([9]; 600 mg oral dose) [µg/mL]	Share of rifampicin in sub-retina and sclera complex delivered to the sub-retina [10]	Tmax [11] [h]	Peak concentration in mouse sub-retinal and scleral complex [12]	Peak concentration in mouse sub-retinal and scleral complex, calculated molar [12]
C[C@@H]1C[C@H]2[C@@H]3CCC4=CC(=O)C=C[C@]4(C)[C@@]3(F)[C@@H](O)C[C@]2(C)[C@@]1(O)C(=O)CO [Dexamethasone]	33 ng/ 1 g of retinal tissues (Rabbit, average of n = 6)																			
CO[C@H]1/C=C/O[C@@]2(C)Oc3c(C)c(O)c4c(O)c(c(/C=N/N5CCN(C)CC5)c(O)c4c3C2=O)NC(=O)/C(C)=C\C=C\[C@H](C)[C@H](O)[C@@H](C)[C@@H](O)[C@@H](C)[C@H](OC(C)=O)[C@@H]1C [Rifampicin]		no toxicity	12 to 23	significantly inhibited neovascularization	equivalent to that achieved with intravitreal injection of aflibercept	0.7	approximately 30 times	fewer than that in the control group	1280 ng/ 1 g of retinal tissues (Rat) SE: 394.0348	2939 ng/ 1 g of retinal tissues (Rat) SE: 50.54	approximately 30 µM	up to 28%	improvements in CSC	improved visual acuity and macular thickness	9 to 17	4 to 32	approximately 70%	~1	approximately 0.03 ng/mg tissue weight	roughly 0.04 µM
